In patent US8557872B2, “Compounds, isomer thereof, or pharmaceutically acceptable salts thereof as vanilloid receptor antagonist; and pharmaceutical compositions containing the same” (Amorepacific Corporation, priority 2008, dated 2013):
pIC50: −log10 of the molar value.

Tested on: not listed separately
Assay: PK study in rats, single oral administration
Format: in vivo, rat
Parameters: AUC: concentration or dose not given beside the values
Conditions: rat, single oral administration, plasma, Table 2
Experimental: Pharmacokinetics of compounds in rats were analyzed using the following experiment. Rats were fasted overnight prior to administration and until approximately 4 hours after administration. Rats were given a single oral administration of compound at same dose. Administration volume was 10 ml/kg. Blood samples were collected from the retro-orbital sinus at various times over the following 7 hrs. Immediately after each collection, plasmas were separated from blood cells by centrifugation and stored at −20° C. until the analysis was performed. The plasma samples were analyzed using a reverse phase high-performance chromatography (HPLC) method.

For `CCCNc1cc(C(F)(F)F)ccc1/C=C/C(=O)NCc1cc(F)c(NS(C)(=O)=O)c(F)c1` [Example 2, N-(3,5-Difluoro-4-methanesulfonylamino-benzyl)-3-(2-propylamino-4-trifluoromethyl-phenyl)-acrylamide], the AUC was 7150 ng·h/mL.

Molecule `CCCNc1cc(C(F)(F)F)ccc1/C=C/C(=O)NCc1cc(F)c(NS(C)(=O)=O)c(F)c1` [Example 2, N-(3,5-Difluoro-4-methanesulfonylamino-benzyl)-3-(2-propylamino-4-trifluoromethyl-phenyl)-acrylamide] has a Cmax of 1420 ng/mL.

Work on `CCCNc1cc(C(F)(F)F)ccc1/C=C/C(=O)NCc1cc(F)c(NS(C)(=O)=O)c(F)c1` [Example 2, N-(3,5-Difluoro-4-methanesulfonylamino-benzyl)-3-(2-propylamino-4-trifluoromethyl-phenyl)-acrylamide] yielded a Tmax of 2 h.

Same assay, conditions: rat, single oral administration, plasma, Table 2, read-out: T½ (converted)

Molecule `CCCNc1cc(C(F)(F)F)ccc1/C=C/C(=O)NCc1cc(F)c(NS(C)(=O)=O)c(F)c1` [Example 2, N-(3,5-Difluoro-4-methanesulfonylamino-benzyl)-3-(2-propylamino-4-trifluoromethyl-phenyl)-acrylamide] has a half-life of 3.55 h.

Same assay, conditions: rat, single oral administration, plasma, Table 3

With `CC(C)(C)c1ccc(/C=C/C(=O)NCc2cc(F)c(NS(C)(=O)=O)c(F)c2)cc1` [Comp Cpd B, reference compound] the AUC was 72 ng·h/mL.

`CC(C)(C)c1ccc(/C=C/C(=O)NCc2cc(F)c(NS(C)(=O)=O)c(F)c2)cc1` [Comp Cpd B, reference compound] gave a Tmax of 0.5 h.

Same assay, conditions: rat, single oral administration, plasma, Table 3, detection limit 0.100 mcg/ml

`CCCc1cc(C(C)(C)C)ccc1/C=C/C(=O)N[C@H](C)c1cc(F)c(NS(C)(=O)=O)c(F)c1` [Comp Cpd E, reference compound] and `C=Cc1cc(CNC(=O)/C=C/c2ccc(C(C)(C)C)cc2NC(C)C)cc(F)c1NS(C)(=O)=O` [Comp Cpd C, reference compound] cannot be ordered by Cmax: less than 100 ng/mL for the first, less than 100 ng/mL for the second.

`C=Cc1cc(CNC(=O)/C=C/c2ccc(C(C)(C)C)cc2)cc(F)c1NS(C)(=O)=O` [Comp Cpd A, reference compound] and `CC(C)(C)c1ccc(/C=C/C(=O)NCc2cc(F)c(NS(C)(=O)=O)c(F)c2)cc1` [Comp Cpd B, reference compound] cannot be ordered by Cmax: less than 100 ng/mL for the first, 69 ng/mL for the second.

Same assay, conditions: rat, single oral administration, plasma, Table 3, read-out: T½ (converted)

Work on `CC(C)(C)c1ccc(/C=C/C(=O)NCc2cc(F)c(NS(C)(=O)=O)c(F)c2)cc1` [Comp Cpd B, reference compound] yielded a half-life of 0.462 h.

Biological target: T1, vanilloid receptor (Rattus norvegicus, UniProt O35433)
T1 construct: DRG nerve cells from the primary culture of 2 days were equilibrated by washing 4 times; endogenous in cells; host or cells: primary culture of dorsal root ganglion neurons from neonatal SD rats
Assay: 45Ca influx test (calcium uptake) in primary cultured DRG neurons, capsaicin 0.5 μM
Format: cell-based
Conditions: Table 3, comparative compounds having tert-butyl-phenyl; read-out: IC50
Experimental: 1) Separation of Spinal Dorsal Root Ganglia (DRG) in Newborn Rats and Primary Culture Thereof
Neonatal (2-3 day old or younger than 2-3 day old) SD rats were put in ice for 5 minutes to anesthetize and disinfected with 70% ethanol. […] The DRG were incubated sequentially at 37° C. for 30 mins in 200 U/ml collagenase and 2.5 mg/ml trypsin, separately. The ganglia were washed twice with DME/F12 medium supplemented with 10% horse serum, triturated through a fire-polished Pasteur pipette, filtered through Nitex 80 membrane to obtain single cell suspension and the suspension was washed once more. This was subjected to centrifugation, then resuspended in cell culture medium at certain level of cell density. As the cell culture medium, DME/F12 medium supplemented with 10% horse serum was diluted with identical medium conditioned by C6 glioma cells 2 days on a confluent monolayer (1:1), and NGF (Nerve Growth Factor) was added to adjust 200 ng/ml as final concentration. After the cells were grown 2 days in medium where cytosine arabinoside (Ara-C, 100 μM) was added to kill dividing nonneuronal cells, medium was changed to one without Ara-C. The resuspended cells were plated at a density of 1500-2000 neurons/well onto Terasaki plates previously coated with 10 μg/ml poly-D-ornithine.
2) ^45Ca Influx Experiments
DRG nerve cells from the primary culture of 2 days were equilibrated by washing 4 times with HEPES (10 mM, pH 7.4)-buffered Ca^2+, Mg^2+-free HBSS (H-HBSS). The solution in each well was removed from the individual well. Medium containing the test compound plus capsaicin (final concentration 0.5 μM) and ^45Ca (final concentration 10 μCi/ml) in H-HBSS was added to each well and incubated at room temperature for 10 mins. Terasaki plates were washed five times with H-HBSS and dried at room temperature. To each well, 0.3% SDS (10 μl) was added to elute ^45Ca. After the addition of scintillation cocktail of into each well, the amount of ^45Ca influx into neuron was measured by counting radioactivity.

T1 sequence (O35433 whole entry): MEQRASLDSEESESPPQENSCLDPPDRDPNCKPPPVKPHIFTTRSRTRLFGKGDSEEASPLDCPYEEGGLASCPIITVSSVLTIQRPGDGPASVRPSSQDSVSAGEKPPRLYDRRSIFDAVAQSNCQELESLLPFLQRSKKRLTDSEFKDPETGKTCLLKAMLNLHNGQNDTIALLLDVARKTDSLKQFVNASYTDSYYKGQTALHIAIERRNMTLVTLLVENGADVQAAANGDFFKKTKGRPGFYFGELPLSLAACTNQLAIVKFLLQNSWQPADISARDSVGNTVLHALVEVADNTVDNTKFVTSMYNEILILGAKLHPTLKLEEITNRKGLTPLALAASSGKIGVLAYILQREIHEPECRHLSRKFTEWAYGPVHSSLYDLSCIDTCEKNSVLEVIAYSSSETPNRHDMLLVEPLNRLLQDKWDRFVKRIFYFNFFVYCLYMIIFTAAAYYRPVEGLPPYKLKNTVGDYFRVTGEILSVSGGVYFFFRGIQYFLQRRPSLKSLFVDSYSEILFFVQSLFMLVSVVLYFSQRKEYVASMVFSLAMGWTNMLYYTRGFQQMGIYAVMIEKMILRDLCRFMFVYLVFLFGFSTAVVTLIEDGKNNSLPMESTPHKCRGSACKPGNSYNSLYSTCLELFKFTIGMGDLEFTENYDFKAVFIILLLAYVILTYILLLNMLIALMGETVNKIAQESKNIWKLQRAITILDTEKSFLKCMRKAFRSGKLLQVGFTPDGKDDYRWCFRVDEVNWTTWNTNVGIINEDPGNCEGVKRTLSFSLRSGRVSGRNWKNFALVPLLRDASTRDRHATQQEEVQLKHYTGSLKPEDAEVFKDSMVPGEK

`CCCc1cc(C(C)(C)C)ccc1/C=C/C(=O)N[C@H](C)c1cc(F)c(NS(C)(=O)=O)c(F)c1` [Comp Cpd E, reference compound] showed a pIC50 of 5.64.

Same assay, conditions: comparison with comparative compounds F and G; read-out: IC50 value

For `C=Cc1cc(CNC(=O)/C=C/c2ccc(C(F)(F)F)cc2NCCC)cc(F)c1NS(C)(=O)=O` [Example 12, N-(3-Fluoro-4-methanesulfonylamino-5-vinyl-benzyl)-3-(2-propylamino-4-trifluoromethyl-phenyl)-acrylamide], the pIC50 was 6.82.

Same assay, conditions: rat DRG neurons, capsaicin 0.5 μM, 45Ca; read-out: Antagonist Calcium Uptake Test (IC50)

Compared with `CCCNc1cc(C(F)(F)F)ccc1/C=C/C(=O)NCc1cc(F)c(NS(C)(=O)=O)c(F)c1` [Example 2, N-(3,5-Difluoro-4-methanesulfonylamino-benzyl)-3-(2-propylamino-4-trifluoromethyl-phenyl)-acrylamide], `CCCNc1cc(C(F)(F)F)ccc1/C=C/C(=O)NCc1cc(C)c(NS(C)(=O)=O)c(F)c1` [Example 11, N-(3-Fluoro-4-methanesulfonylamino-5-methyl-benzyl)-3-(2-propylamino-4-trifluoromethyl-phenyl)-acrylamide] is 0.44 log units higher in pIC50: 6.77 for the first, 7.21 for the second.

First: CCOc1cc(C(F)(F)F)ccc1/C=C/C(=O)NCc1cc(F)c(NS(C)(=O)=O)c(C(F)(F)F)c1 [Example 15, 3-(2-Ethoxy-4-trifluoromethyl-phenyl)-N-(3-fluoro-4-methanesulfonylamino-5-trifluoromethyl-benzyl)-acrylamide]
Second: CCOc1cc(C(F)(F)F)ccc1/C=C/C(=O)NCc1cc(F)c(NS(C)(=O)=O)c(F)c1 [Example 8, N-(3,5-Difluoro-4-methanesulfonylamino-benzyl)-3-(2-ethoxy-4-trifluoromethyl-phenyl)-acrylamide]
The pIC50 of the first is 0.45 log units lower: 5.62 for the first, 6.07 for the second.

Compared with `CCc1cc(C(F)(F)F)cc(CC)c1/C=C/C(=O)N[C@H](C)c1cc(F)c(NS(C)(=O)=O)c(F)c1` [Example 17], `CCCc1cc(C(F)(F)F)cc(CCC)c1/C=C/C(=O)N[C@H](C)c1cc(F)c(NS(C)(=O)=O)c(F)c1` [Example 6, (R)—N-[1-(3,5-Difluoro-4-methanesulfonylamino-phenyl)-ethyl]-3-(2,6-dipropyl-4-trifluoromethyl-phenyl)-acrylamide] is 0.74 log units higher in pIC50: 6.85 for the first, 7.59 for the second.

Going from `C#Cc1cc(CNC(=O)/C=C/c2ccc(C(F)(F)F)cc2CCC)cc(F)c1NS(C)(=O)=O` [Example 35, N-(3-Ethynyl-5-fluoro-4-methanesulfonylamino-benzyl)-3-(2-propyl-4-trifluoromethyl-phenyl)-acrylamide] to `CCCc1cc(C(F)(F)F)ccc1/C=C/C(=O)NCc1cc(C)c(NS(C)(=O)=O)c(F)c1` [Example 23, N-(3-Fluoro-4-methanesulfonylamino-5-methyl-benzyl)-3-(2-propyl-4-trifluoromethyl-phenyl)-acrylamide], the pIC50 falls from 7.04 to 6.57 (0.47 log units).

Compared with `CCCc1cc(C(F)(F)F)ccc1/C=C(\C)C(=O)N[C@H](C)c1ccc(NS(C)(=O)=O)c(F)c1` [Example 49, (R)—N-[1-(3-Fluoro-4-methanesulfonylamino-phenyl)-ethyl]-2-methyl-3-(2-propyl-4-trifluoromethyl-phenyl)-acrylamide], `CCOc1cc(C(F)(F)F)ccc1/C=C/C(=O)N[C@H](C)c1ccc(NS(C)(=O)=O)c(F)c1` [Example 9, (R)—N-[1-(3-Fluoro-4-methanesulfonylamino-phenyl)-ethyl]-3-(2-ethoxy-4-trifluoromethyl-phenyl)-acrylamide] is 0.62 log units higher in pIC50: 5.85 for the first, 6.47 for the second. The second is the more potent here.

Compared with `CCNc1cc(C(F)(F)F)ccc1/C=C/C(=O)N[C@H](C)c1cc(F)c(NS(C)(=O)=O)c(F)c1` [Example 10, (R)—N-[1-(3,5-Difluoro-4-methanesulfonylamino-phenyl)-ethyl]-3-(2-ethylamino-4-trifluoromethyl-phenyl)-acrylamide], `CCCCNc1cc(C(F)(F)F)ccc1/C=C/C(=O)N[C@H](C)c1cc(F)c(NS(C)(=O)=O)c(F)c1` [Example 3, (R)-3-(2-Butylamino-4-trifluoromethyl-phenyl)-N-[1-(3,5-difluoro-4-methanesulfonylamino-phenyl)-ethyl]-acrylamide] is 0.38 log units lower in pIC50: 7.30 for the first, 6.92 for the second. The first is the more potent here.

First: CCCCOc1cc(F)ccc1/C=C/C(=O)NCc1cc(F)c(NS(C)(=O)=O)c(F)c1 [Example 34, 3-(2-Butoxy-4-fluoro-phenyl)-N-(3,5-difluoro-4-methanesulfonylamino-benzyl)-acrylamide]
Second: CCCCNc1cc(F)ccc1/C=C/C(=O)NCc1cc(F)c(NS(C)(=O)=O)c(F)c1 [Example 46, 3-(2-Butylamino-4-fluoro-phenyl)-N-(3,5-difluoro-4-methanesulfonylamino-benzyl)-acrylamide]
The pIC50 of the first is 0.73 log units lower: 6.01 for the first, 6.74 for the second. The second is the more potent here.

`CCCCOc1cc(C(F)(F)F)ccc1/C=C/C(=O)N[C@H](CC)c1cc(F)c(NS(C)(=O)=O)c(F)c1` (stereo in doubt) [Example 38, 3-(2-Butoxy-4-trifluoromethyl-phenyl)-N-[1-(3,5-difluoro-4-methanesulfonylamino-phenyl)-propyl]-acrylamide] and `CCOc1cc(C(F)(F)F)ccc1/C=C/C(=O)N[C@H](CC)c1cc(F)c(NS(C)(=O)=O)c(F)c1` (stereo in doubt) [Example 37, N-[1-(3,5-Difluoro-4-methanesulfonylamino-phenyl)-propyl]-3-(2-ethoxy-4-trifluoromethyl-phenyl)-acrylamide] are within 0.2 log units of each other in pIC50: 5.96 for the first, 5.77 for the second.

Compared with `CCCCOc1cc(C(F)(F)F)ccc1/C=C/C(=O)N[C@H](C)c1cc(F)c(NS(C)(=O)=O)c(F)c1` [Example 31, (R)-3-(2-Butoxy-4-trifluoromethyl-phenyl)-N-[1-(3,5-difluoro-4-methanesulfonylamino-phenyl)-ethyl]-acrylamide], `CC(C)Oc1cc(C(F)(F)F)ccc1/C=C/C(=O)N[C@H](C)c1cc(F)c(NS(C)(=O)=O)c(F)c1` [Example 26, (R)—N-[1-(3,5-Difluoro-4-methanesulfonylamino-phenyl)-ethyl]-3-(2-isopropoxy-4-trifluoromethyl-phenyl)-acrylamide] is 0.37 log units higher in pIC50: 6.96 for the first, 7.33 for the second.

`CCC(C)Oc1cc(F)ccc1/C=C/C(=O)NCc1cc(F)c(NS(C)(=O)=O)c(F)c1` (stereo not drawn) [Example 41, 3-(2-sec-Butoxy-4-fluoro-phenyl)-N-(3,5-difluoro-4-methanesulfonylamino-benzyl)-acrylamide] and `CCCOc1cc(C(F)(F)F)ccc1/C=C/C(=O)NCc1cc(F)c(NS(C)(=O)=O)c(F)c1` [Example 4, N-(3,5-Difluoro-4-methanesulfonylamino-benzyl)-3-(2-propoxy-4-trifluoromethyl-phenyl)-acrylamide] are within 0.2 log units of each other in pIC50: 6.26 for the first, 6.42 for the second.

`CCCNc1cc(F)ccc1/C=C/C(=O)N[C@H](C)c1cc(F)c(NS(C)(=O)=O)c(F)c1` [Example 29, (R)—N-[1-(3,5-Difluoro-4-methanesulfonylamino-phenyl)ethyl]-3-(4-fluoro-2-propylaminophenyl)-acrylamide] and `CCNc1cc(F)ccc1/C=C/C(=O)N[C@H](C)c1cc(F)c(NS(C)(=O)=O)c(F)c1` [Example 42, (R)—N-[1-(3,5-Difluoro-4-methanesulfonylamino-phenyl)-ethyl]-3-(2-ethylamino-4-fluoro-phenyl)-acrylamide] are within 0.2 log units of each other in pIC50: 6.80 for the first, 6.96 for the second.

With `CCCc1cc(C(F)(F)F)ccc1/C=C/C(=O)N[C@H](CC)c1cc(F)c(NS(C)(=O)=O)c(F)c1` [Example 25, (R)—N-[1-(3,5-Difluoro-4-methanesulfonylamino-phenyl)-propyl]-3-(2-propyl-4-trifluoromethyl-phenyl)-acrylamide] the pIC50 was 6.77.
